Patent US9475817B2 (BRISTOL-MYERS SQUIBB COMPANY, priority 2012, dated 2016)

Key:
CK1ε = CK1ε (Homo sapiens (Human), UniProt P49674); assay: CK1ε kinase assay (Caliper LabChip, fluoresceinated peptide substrate); assay type: biochemical; conditions: 200 pM CK1ε, 50 μM ATP, 1.5 μM peptide substrate, 22 hours room temperature
Method: (§1) CK1ε and CK1δ Kinase Assays
(§2) The kinase assay was performed in V-bottom 384-well plates. […] The reaction was incubated at room temperature for 22 hours and terminated by adding 45 μl of 35 mM EDTA to each sample. […] Compounds were dissolved at 10 mM in dimethylsulfoxide (DMSO) and evaluated at eleven concentrations. IC50 values were derived by non-linear regression analysis.

CK1δ = CK1δ (Homo sapiens (Human), UniProt P48730); assay: CK1δ kinase assay (Caliper LabChip, fluoresceinated peptide substrate); assay type: biochemical; conditions: 200 pM CK1δ, 50 μM ATP, 1.5 μM peptide substrate, 22 hours room temperature
Method: as §1, §2

Chain of CK1δ (P48730 whole entry): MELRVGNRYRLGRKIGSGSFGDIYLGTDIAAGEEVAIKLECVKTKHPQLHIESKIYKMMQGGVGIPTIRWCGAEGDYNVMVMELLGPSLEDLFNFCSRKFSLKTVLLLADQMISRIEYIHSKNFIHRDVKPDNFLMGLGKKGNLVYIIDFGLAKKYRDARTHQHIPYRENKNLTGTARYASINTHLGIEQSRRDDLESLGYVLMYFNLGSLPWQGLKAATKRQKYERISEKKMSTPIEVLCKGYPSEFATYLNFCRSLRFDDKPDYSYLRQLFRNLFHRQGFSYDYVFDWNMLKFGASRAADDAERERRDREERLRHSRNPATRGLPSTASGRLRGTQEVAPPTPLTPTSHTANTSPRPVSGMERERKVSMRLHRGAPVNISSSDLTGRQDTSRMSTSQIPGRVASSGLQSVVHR
Chain of CK1ε (P49674 whole entry): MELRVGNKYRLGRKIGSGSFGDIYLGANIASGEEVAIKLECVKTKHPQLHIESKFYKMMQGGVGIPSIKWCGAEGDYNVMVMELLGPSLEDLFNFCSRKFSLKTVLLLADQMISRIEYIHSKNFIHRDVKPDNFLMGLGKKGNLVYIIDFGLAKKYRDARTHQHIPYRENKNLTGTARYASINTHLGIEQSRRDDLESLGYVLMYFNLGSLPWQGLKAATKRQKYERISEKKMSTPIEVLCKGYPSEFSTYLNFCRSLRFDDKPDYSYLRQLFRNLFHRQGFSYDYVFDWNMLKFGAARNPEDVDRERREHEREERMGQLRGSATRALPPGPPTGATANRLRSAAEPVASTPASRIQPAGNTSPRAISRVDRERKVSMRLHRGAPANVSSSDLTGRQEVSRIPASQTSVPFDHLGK

IC50 (CK1ε) [nM]	IC50 (CK1δ) [nM]	Compound
34.1	8.3	Cc1nc(-c2ccccc2)sc1C(=O)Nc1cn2nc(-c3cn(C)nc3-c3ccc(F)cc3)ccc2n1 [Compound 7, N-(6-(3-(4-fluorophenyl)-1-methyl-1H-pyrazol-4-yl)imidazo[1,2-b]pyridazin-2-yl)-4-methyl-2-phenylthiazol-5-carboxamide]
42	11.8	Cn1cc(-c2ccc3nc(NC(=O)c4ccccn4)cn3n2)c(-c2ccc(F)cc2)n1 [Compound 96, N-(6-(3-(4-fluorophenyl)-1-methyl-1H-pyrazol-4-yl)imidazo[1,2-b]pyridazin-2-yl)picolinamide]
6.6	3.1	Cn1cc(-c2ccc3nc(NC(=O)c4cncs4)cn3n2)c(-c2ccc(F)cc2)n1 [Compound 28, N-(6-(3-(4-fluorophenyl)-1-methyl-1H-pyrazol-4-yl)imidazo[1,2-b]pyridazin-2-yl) thiazole-5-carboxamide]
12	0.8	Cn1nc(-c2ccc(F)cc2)c(-c2ccc3nc(NC(=O)c4ccnc(N5CCOCC5)c4)cn3n2)c1N1CCN(Cc2ccon2)CC1 [Compound 136, N-(6-(3-(4-Fluorophenyl)-5-(4-(isoxazol-3-ylmethyl)piperazin-1-yl)-1-methyl-1H-pyrazol-4-yl)imidazo[1,2-b]pyridazin-2-yl)-2-morpholinoisonicotinamide]
4.8	0.5	Cn1nc(-c2ccc(F)cc2)c(-c2ccc3nc(NC(=O)c4ccnc(N5CCOCC5)c4)cn3n2)c1C1CCOCC1 [Compound 198, N-(6-(3-(4-Fluorophenyl)-1-methyl-5-(tetrahydro-2H-pyran-4-yl)-1H-pyrazol-4-yl)imidazo[1,2-b]pyridazin-2-yl)-2-morpholinoisonicotinamide]
2.6	2.1	Cn1nc(-c2ccc(F)cc2)c(-c2ccc3nc(NC(=O)c4ccnc(F)c4)cn3n2)c1C1CCNCC1 [Compound 148, 2-Fluoro-N-(6-(3-(4-fluorophenyl)-1-methyl-5-(piperidin-4-yl)-1H-pyrazol-4-yl)imidazo[1,2-b]pyridazin-2-yl)isonicotinamide]
28.8	5.5	Cc1nc(-c2ccccn2)sc1C(=O)Nc1cn2nc(-c3cn(C4CC4)nc3-c3ccc(F)cc3)ccc2n1 [Compound 110, N-(6-(1-cyclopropyl-3-(4-fluorophenyl)-1H-pyrazol-4-yl)imidazo[1,2-b]pyridazin-2-yl)-4-methyl-2-(pyridin-2-yl)thiazole-5-carboxamide]
9.2	4.3	Cn1cc(-c2ccc3nc(NC(=O)c4ccccc4F)cn3n2)c(-c2ccc(F)cc2)n1 [Compound 20, 2-fluoro-N-(6-(3-(4-fluorophenyl)-1-methyl-1H-pyrazol-4-yl)imidazo[1,2-b]pyridazin-2-yl)benzamide]
3.3	0.9	Cn1nc(-c2ccc(F)cc2)c(-c2ccc3nc(NC(=O)c4ccncc4)cn3n2)c1C1CCNCC1 [Compound 164, N-(6-(3-(4-Fluorophenyl)-1-methyl-5-(piperidin-4-yl)-1H-pyrazol-4-yl)imidazo[1,2-b]pyridazin-2-yl)isonicotinamide]
1.9	0.2	Cn1nc(-c2ccc(F)cc2)c(-c2ccc3nc(NC(=O)c4cccc(-c5cccnc5)c4)cn3n2)c1C1CCOCC1 [Compound 199, N-(6-(3-(4-Fluorophenyl)-1-methyl-5-(tetrahydro-2H-pyran-4-yl)-1H-pyrazol-4-yl)imidazo[1,2-b]pyridazin-2-yl)-3-(pyridin-3-yl)benzamide]
1020	435	COc1ncc(C(=O)Nc2cn3nc(-c4cn(C)nc4-c4ccc(F)cc4)ccc3n2)cn1 [Compound 84, N-(6-(3-(4-fluorophenyl)-1-methyl-1H-pyrazol-4-yl)imidazo[1,2-b]pyridazin-2-yl)-2-methoxypyrimidine-5-carboxamide]
23.5	1.4	Cn1nc(-c2ccc(F)cc2)c(-c2ccc3nc(NC(=O)c4ccncc4)cn3n2)c1N1CCN(CCC(F)(F)F)CC1 [Compound 130, N-(6-(3-(4-Fluorophenyl)-1-methyl-5-(4-(3,3,3-trifluoropropyl)piperazin-1-yl)-1H-pyrazol-4-yl)imidazo[1,2-b]pyridazin-2-yl)isonicotinamide]
116	30.5	Cn1cc(-c2ccc3nc(NC(=O)c4nccs4)cn3n2)c(-c2ccc(F)cc2)n1 [Compound 37, N-(6-(3-(4-fluorophenyl)-1-methyl-1H-pyrazol-4-yl)imidazo[1,2-b]pyridazin-2-yl)thiazole-2-carboxamide]
1.3	0.2	Cc1nc(-c2cccnc2)sc1C(=O)Nc1cn2nc(-c3c(-c4ccc(F)cc4)nn(C)c3C3CCN(CC(N)=O)CC3)ccc2n1 [Compound 178, N-(6-(5-(1-(2-Amino-2-oxoethyl)piperidin-4-yl)-3-(4-fluorophenyl)-1-methyl-1H-pyrazol-4-yl)imidazo[1,2-b]pyridazin-2-yl)-4-methyl-2-(pyridin-3-yl)thiazole-5-carboxamide]
8.1	0.5	Cn1nc(-c2ccc(F)cc2)c(-c2ccc3nc(NC(=O)c4ccnc(F)c4)cn3n2)c1-c1ccncc1 [Compound 202, 2-Fluoro-N-(6-(3-(4-fluorophenyl)-1-methyl-5-(pyridin-4-yl)-1H-pyrazol-4-yl)imidazo[1,2-b]pyridazin-2-yl)isonicotinamide]
32.6	2	O=C(Nc1cn2nc(-c3cn(C4CC4)nc3-c3ccc(F)cc3)ccc2n1)c1cccc(-c2cccnc2)c1 [Compound 108, N-(6-(1-cyclopropyl-3-(4-fluorophenyl)-1H-pyrazol-4-yl)imidazo[1,2-b]pyridazin-2-yl)-3-(pyridin-3-yl) benzamide]
7.9	5.8	Cn1cc(-c2ccc3nc(NC(=O)c4ccc(CN5CCCC5)cc4)cn3n2)c(-c2ccc(F)cc2)n1 [Compound 30, N-(6-(3-(4-fluorophenyl)-1-methyl-1H-pyrazol-4-yl)imidazo[1,2-b]pyridazin-2-yl)-4-(pyrrolidin-1-ylmethyl)benzamide]
2.3	0.3	Cc1nc(-c2cccnc2)sc1C(=O)Nc1cn2nc(-c3c(-c4ccc(F)cc4)nn(C)c3C3CCOCC3)ccc2n1 [Compound 201, N-(6-(3-(4-Fluorophenyl)-1-methyl-5-(tetrahydro-2H-pyran-4-yl)-1H-pyrazol-4-yl)imidazo[1,2-b]pyridazin-2-yl)-4-methyl-2-(pyridin-3-yl)thiazole-5-carboxamide]
12.1	4.1	Cn1cc(-c2ccc3nc(NC(=O)c4cc(C#N)ccc4F)cn3n2)c(-c2ccc(F)cc2)n1 [Compound 55, 5-cyano-2-fluoro-N-(6-(3-(4-fluorophenyl)-1-methyl-1H-pyrazol-4-yl)imidazo[1,2-b]pyridazin-2-yl)benzamide]
2.3	0.6	Cn1nc(-c2ccc(F)cc2)c(-c2ccc3nc(NC(=O)c4ccnc(F)c4)cn3n2)c1N1CCNCC1 [Compound 113, 2-fluoro-N-(6-(3-(4-fluorophenyl)-1-methyl-5-(piperazin-1-yl)-1H-pyrazol-4-yl)imidazo[1,2-b]pyridazin-2-yl)isonicotinamide]
2.4	0.4	Cc1nc(-c2ccncc2)sc1C(=O)Nc1cn2nc(-c3c(-c4ccc(F)cc4)nn(C)c3C3CCN(CCC#N)CC3)ccc2n1 [Compound 183, N-(6-(5-(1-(2-Cyanoethyl)piperidin-4-yl)-3-(4-fluorophenyl)-1-methyl-1H-pyrazol-4-yl)imidazo[1,2-b]pyridazin-2-yl)-4-methyl-2-(pyridin-4-yl)thiazole-5-carboxamide]
1.4	0.4	Cn1nc(-c2ccc(F)cc2)c(-c2ccc3nc(NC(=O)c4ccnc(F)c4)cn3n2)c1C1CCN(C[C@H](O)C(F)(F)F)CC1 [Compound 159, (S)-2-Fluoro-N-(6-(3-(4-fluorophenyl)-1-methyl-5-(1-(3,3,3-trifluoro-2-hydroxypropyl)piperidin-4-yl)-1H-pyrazol-4-yl)imidazo[1,2-b]pyridazin-2-yl)isonicotinamide]
3	0.3	Cc1nc(-c2ccncc2)sc1C(=O)Nc1cn2nc(-c3c(-c4ccc(F)cc4)nn(C)c3C3CCOCC3)ccc2n1 [Compound 200, N-(6-(3-(4-Fluorophenyl)-1-methyl-5-(tetrahydro-2H-pyran-4-yl)-1H-pyrazol-4-yl)imidazo[1,2-b]pyridazin-2-yl)-4-methyl-2-(pyridin-4-yl)thiazole-5-carboxamide]
35	6.2	Cc1nc(-c2ccncc2)sc1C(=O)Nc1cn2nc(-c3cn(C4CC4)nc3-c3ccc(F)cc3)ccc2n1 [Compound 111, N-(6-(1-cyclopropyl-3-(4-fluorophenyl)-1H-pyrazol-4-yl)imidazo[1,2-b]pyridazin-2-yl)-4-methyl-2-(pyridin-4-yl)thiazole-5-carboxamide]
5.6	5.4	Cn1cc(-c2ccc3nc(NC(=O)c4ccccc4)cn3n2)c(-c2ccc(F)cc2)n1 [Compound 81, N-(6-(3-(4-fluorophenyl)-1-methyl-1H-pyrazol-4-yl)imidazo[1,2-b]pyridazin-2-yl)benzamide]
17.8	7.6	Cc1cc(C(=O)Nc2cn3nc(-c4cn(C)nc4-c4ccc(F)cc4)ccc3n2)ccn1 [Compound 52, N-(6-(3-(4-fluorophenyl)-1-methyl-1H-pyrazol-4-yl)imidazo[1,2-b]pyridazin-2-yl)-2-methylisonicotinamide]
9.3	1.4	Cn1nc(-c2ccc(F)cc2)c(-c2ccc3nc(NC(=O)c4ccnc(N5CCOCC5)c4)cn3n2)c1N1CCN(CCCF)CC1 [Compound 139, N-(6-(3-(4-Fluorophenyl)-5-(4-(3-fluoropropyl)piperazin-1-yl)-1-methyl-1H-pyrazol-4-yl)imidazo[1,2-b]pyridazin-2-yl)-2-morpholinoisonicotinamide]
